Results: ChEMBL document CHEMBL4342470, “Detection of Active Granzyme A in NK92 Cells with Fluorescent Activity-Based Probe” (J Med Chem, 2020)
Activity calls are given as the source filed them. The calls are words filed in the database; no cut-off is given here. Non-standard residues stand in square brackets, D forms with d. Residues, ends and D or L forms follow the SMILES beside them. ξ: configuration not given here. *: point of attachment. Phe(4-guanidino) = N=C(N)Nc1ccc(C[C@H](N)C(=O)O)cc1; Oic(3aξ,7aξ) = O=C(O)[C@@H]1CC2CCCCC2N1; Phe(4-F) = N[C@@H](Cc1ccc(F)cc1)C(=O)O; ACC = NC(=O)Cc1cc(=O)oc2cc(N*)ccc12; Met(O) = CS(=O)CC[C@H](N)C(=O)O; Tic = O=C(O)[C@@H]1Cc2ccccc2CN1; X1 = Clc1cccc(Cl)c1C*

Legend:
[1] = molecular target: T1, Granzyme A (Homo sapiens) (UniProt P12544); experiment: Substrate activity at Granzyme A (unknown origin) expressed in Pichia pastoris incubated for 30 mins by fluorescence based assay
T1 sequence (whole entry): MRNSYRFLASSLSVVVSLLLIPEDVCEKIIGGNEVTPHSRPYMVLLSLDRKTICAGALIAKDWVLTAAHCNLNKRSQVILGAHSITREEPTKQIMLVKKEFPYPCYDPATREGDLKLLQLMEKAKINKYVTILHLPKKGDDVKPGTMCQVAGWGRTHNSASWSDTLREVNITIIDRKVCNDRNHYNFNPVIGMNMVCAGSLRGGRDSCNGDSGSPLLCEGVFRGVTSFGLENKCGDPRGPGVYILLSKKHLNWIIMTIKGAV

[2] = molecular target: Granzyme B (Homo sapiens) (UniProt P10144); experiment: Substrate activity at Granzyme B (unknown origin) expressed in Pichia pastoris assessed as compound hydrolysis at 200 uM incubated for 30 mins by fluorescence based assay relative to control
Sequence of Granzyme B (Homo sapiens) (P10144 whole entry): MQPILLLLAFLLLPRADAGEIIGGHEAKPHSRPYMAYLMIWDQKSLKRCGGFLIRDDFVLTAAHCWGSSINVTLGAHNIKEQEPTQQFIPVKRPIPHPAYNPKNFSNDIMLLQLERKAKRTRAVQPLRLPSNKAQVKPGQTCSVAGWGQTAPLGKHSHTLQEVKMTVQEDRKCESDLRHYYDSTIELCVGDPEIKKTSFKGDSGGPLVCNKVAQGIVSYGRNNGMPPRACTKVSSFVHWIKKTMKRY

[3] = molecular target: T2, Granzyme K (Homo sapiens) (UniProt P49863); experiment: Substrate activity at Granzyme K (unknown origin) expressed in Pichia pastoris assessed as compound hydrolysis at 200 uM incubated for 30 mins by fluorescence based assay relative to control; parameters: scale not given: the % may be the effect or the level left
T2 sequence (whole entry): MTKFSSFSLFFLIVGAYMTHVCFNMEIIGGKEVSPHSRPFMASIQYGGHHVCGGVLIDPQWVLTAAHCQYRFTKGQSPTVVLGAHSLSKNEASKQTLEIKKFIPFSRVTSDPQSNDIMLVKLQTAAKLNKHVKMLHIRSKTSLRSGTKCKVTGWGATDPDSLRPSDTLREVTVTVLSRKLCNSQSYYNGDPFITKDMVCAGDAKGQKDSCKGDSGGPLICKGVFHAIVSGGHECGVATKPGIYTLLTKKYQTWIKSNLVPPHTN

Compound | Activity [1] | Activity [2] | Activity [3] [%]
CC(=O)N1Cc2ccccc2C[C@H]1C(=O)NC(CCc1nc2ccccc2s1)C(=O)N1C2CCCCC2C[C@H]1C(=O)N[C@@H](CCCNC(=N)N)C(=O)Nc1ccc2c(CC(N)=O)cc(=O)oc2c1 (some centres undefined) | Active | – | –
CC(=O)N[C@@H](CC[S+](C)[O-])C(=O)NCC(=O)N[C@@H](Cc1ccc(OCc2c(Cl)cccc2Cl)cc1)C(=O)N[C@@H](Cc1ccc(NC(=N)N)cc1)C(=O)Nc1ccc2c(CC(N)=O)cc(=O)oc2c1 (some centres undefined) (Ac-[Met(O)]GY(X1)[Phe(4-guanidino)]-{ACC}) | Active | – | –
CC(=O)N1Cc2ccccc2C[C@H]1C(=O)NCC(=O)N1C2CCCCC2C[C@H]1C(=O)N[C@@H](CCCNC(=N)N)C(=O)Nc1ccc2c(CC(N)=O)cc(=O)oc2c1 (stereo partly drawn) (Ac-[Tic]G[Oic(3aξ,7aξ)]R-{ACC}) | – | inactive | 20

The remaining lines, values ahead:

Activity [1] | Activity [2] | Activity [3] [%] | Compound
Active | – | – | CC(=O)N[C@@H](CC[S+](C)[O-])C(=O)NCC(=O)N1CC(OCc2ccccc2)C[C@H]1C(=O)N[C@@H](CCCNC(=N)N)C(=O)Nc1ccc2c(CC(N)=O)cc(=O)oc2c1 (some centres undefined)
– | Active | – | CC(=O)N[C@@H](CC[S+](C)[O-])C(=O)NCC(=O)N1CC(OCc2ccccc2)C[C@H]1C(=O)Nc1cccc(C(=O)Nc2ccc3c(CC(N)=O)cc(=O)oc3c2)c1 (some centres undefined)
Active | – | – | CC(=O)N[C@@H](CC[S+](C)[O-])C(=O)NCC(=O)N[C@@H](Cc1ccc(F)cc1)C(=O)N[C@@H](CCCNC(=N)N)C(=O)Nc1ccc2c(CC(N)=O)cc(=O)oc2c1 (stereo partly drawn) (Ac-[Met(O)]G[Phe(4-F)]R-{ACC})
Active | – | – | CC(=O)N[C@@H](CC[S+](C)[O-])C(=O)NCC(=O)N1CC(OCc2ccccc2)C[C@H]1C(=O)N[C@@H](Cc1ccc(NC(=N)N)cc1)C(=O)Nc1ccc2c(CC(N)=O)cc(=O)oc2c1 (some centres undefined)
Active | – | – | CC(=O)N[C@@H](CC[S+](C)[O-])C(=O)NCC(=O)N[C@@H](Cc1ccc(OCc2c(Cl)cccc2Cl)cc1)C(=O)N[C@@H](CCCNC(=N)N)C(=O)Nc1ccc2c(CC(N)=O)cc(=O)oc2c1 (stereo partly drawn) (Ac-[Met(O)]GY(X1)R-{ACC})
